Results taken from patent publication US5464861A, “2-thioindoles (selenoindoles) and related disulfides (selenides) which inhibit protein tyrosine kinases and which have antitumor properties” (Warner-Lambert, priority 1993, dated 1995).
Where two headings read alike, the source gives them in different places.

What was measured:
[1] = target: T1, epidermal growth factor receptor tyrosine kinase (Homo sapiens, UniProt P00533); assay: EGF receptor tyrosine kinase assay (P^32 incorporation in GAT); assay type: biochemical; details: for inhibition at 100 µM: EGRF-R, read-out: % Inhibition at 100 μM (EGFR TK); for IC50: read-out: IC50 (EGFR TK)
T1 construct: A native 170,000 epidermal growth factor receptor-kinase complex from shed plasma membrane vesicles; endogenous in cells
Protocol: At the time of assay, membranes were solubilized in 4% Triton X-100 and glycerol. The reaction is carried out in wells of a 96-well microtiter plate in a total volume of […]. Buffer containing 20 mMHepes (pH 7.4), 15 mMMgCl2, mM MnCl2, and 0.02% BSA followed by […] of membrane protein and 150 ng of epidermal growth factor. The plates are incubated for 10 minutes at room temperature to activate the receptor kinase. […] ATP plus or minus compound are added and incubated 10 minutes at room temperature.

[2] = target: T2, human PDGF β receptor intracellular tyrosine kinase domain (Homo sapiens, UniProt P09619); assay: PDGF receptor tyrosine kinase inhibition assay (P^32 incorporation in Glu-Tyr); assay type: biochemical; details: read-out: % Inhibition at 100 μM (PDGFR TK)
T2 construct: human PDGF β receptor intracellular tyrosine kinase domain; made in house; host or cells: SF9 insect cells, recombinant baculovirus; cell lysates used
T2 sequence (P09619 554-1106 limits assumed): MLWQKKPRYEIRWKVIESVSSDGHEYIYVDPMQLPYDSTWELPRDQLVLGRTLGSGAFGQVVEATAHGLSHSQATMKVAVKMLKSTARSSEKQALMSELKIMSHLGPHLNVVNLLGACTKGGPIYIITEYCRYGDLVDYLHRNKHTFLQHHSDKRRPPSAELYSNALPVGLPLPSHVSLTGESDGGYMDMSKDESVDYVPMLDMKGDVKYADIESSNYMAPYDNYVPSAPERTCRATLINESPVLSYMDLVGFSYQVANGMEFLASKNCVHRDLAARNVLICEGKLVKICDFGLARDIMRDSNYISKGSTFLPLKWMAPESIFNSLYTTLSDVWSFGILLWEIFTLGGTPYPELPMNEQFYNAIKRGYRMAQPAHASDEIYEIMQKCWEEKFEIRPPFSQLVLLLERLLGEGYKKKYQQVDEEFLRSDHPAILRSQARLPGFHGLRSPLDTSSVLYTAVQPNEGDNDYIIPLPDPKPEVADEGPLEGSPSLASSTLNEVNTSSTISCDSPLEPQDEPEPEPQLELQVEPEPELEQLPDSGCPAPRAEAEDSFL
Protocol: Recombinant baculovirus containing human PDGF β receptor intracellular tyrosine kinase domain was used to infect SF9 cells to overexpress the protein, and cell lysates were used for the assay. The ability of the tyrosine kinase to phosphorylate glutamate tyrosine substrate in the presence of P^32 -ATP and inhibitor was measured by counting the incorporation of P^32 in Glu-Tyr in TCAprecipitable material.

T1 sequence (P00533 25-1210): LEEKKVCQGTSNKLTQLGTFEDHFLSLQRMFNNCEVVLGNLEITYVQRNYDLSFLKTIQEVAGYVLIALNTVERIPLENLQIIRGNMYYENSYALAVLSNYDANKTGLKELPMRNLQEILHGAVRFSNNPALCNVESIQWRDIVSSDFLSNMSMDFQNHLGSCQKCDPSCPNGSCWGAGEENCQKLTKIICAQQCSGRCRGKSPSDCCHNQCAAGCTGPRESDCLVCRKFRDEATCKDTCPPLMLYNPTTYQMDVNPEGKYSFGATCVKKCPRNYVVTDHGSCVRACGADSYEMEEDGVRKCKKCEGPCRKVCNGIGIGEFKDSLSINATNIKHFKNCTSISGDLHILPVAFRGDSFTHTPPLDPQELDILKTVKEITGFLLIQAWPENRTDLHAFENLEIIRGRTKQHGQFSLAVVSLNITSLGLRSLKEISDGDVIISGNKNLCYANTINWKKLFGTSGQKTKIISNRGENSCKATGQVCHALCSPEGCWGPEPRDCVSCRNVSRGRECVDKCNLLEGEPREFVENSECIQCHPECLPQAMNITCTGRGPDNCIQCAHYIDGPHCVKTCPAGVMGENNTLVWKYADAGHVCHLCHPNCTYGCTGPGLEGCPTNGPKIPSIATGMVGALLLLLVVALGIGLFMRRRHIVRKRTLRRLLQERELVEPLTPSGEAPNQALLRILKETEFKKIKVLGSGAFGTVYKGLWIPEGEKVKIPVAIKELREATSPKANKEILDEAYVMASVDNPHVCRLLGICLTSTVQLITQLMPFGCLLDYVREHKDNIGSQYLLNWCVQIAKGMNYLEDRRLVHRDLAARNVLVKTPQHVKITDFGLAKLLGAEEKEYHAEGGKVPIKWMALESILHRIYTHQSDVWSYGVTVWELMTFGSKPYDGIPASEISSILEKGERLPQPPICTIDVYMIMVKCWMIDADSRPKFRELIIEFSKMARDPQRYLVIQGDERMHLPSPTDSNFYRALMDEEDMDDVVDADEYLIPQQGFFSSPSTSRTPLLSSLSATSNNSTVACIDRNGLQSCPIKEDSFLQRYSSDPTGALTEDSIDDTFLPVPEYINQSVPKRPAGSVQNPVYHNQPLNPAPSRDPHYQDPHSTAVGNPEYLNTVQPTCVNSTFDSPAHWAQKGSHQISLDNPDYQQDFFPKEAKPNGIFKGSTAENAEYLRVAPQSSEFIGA
T1 sequence (P01133 971-1023 partner limits assumed): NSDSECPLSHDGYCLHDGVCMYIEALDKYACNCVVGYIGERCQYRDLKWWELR

Compound	inhibition at 100 µM [1]	inhibition at 100 µM ([2]; at 100 μM, PDGF-R)	IC50 ([1]; Table 2, EGRF-R, IC50 entries)	also measured
O=C(NCc1ccccc1)C(Cc1c(SSc2[nH]c3ccccc3c2CC(NC(=O)C(F)(F)F)C(=O)NCc2ccccc2)[nH]c2ccccc12)NC(=O)C(F)(F)F (racemic) [Compound 61, 2,2'-dithiobis[N-benzyl-α-trifluoroacetylamino-3-(3-indolyl)propanamide]]	37%	11%		
COC(=O)CC1C(=S)Nc2ccccc21 (stereo not drawn) [Compound 3, methyl 2-(2-thioxo-3-indolinyl)acetate]	43%	8.6%		
O=C(CC1C(=S)Nc2ccccc21)NCc1ccccc1 (stereo not drawn) [Compound 6, N-benzyl (2-thioxo-3-indolinyl) acetamide]		8.5%	25 µM	
COC(=O)CCCC1C(=S)N(C)c2ccccc21 (stereo not drawn) [Compound 18, methyl 4-(1-methyl-2-thioxo-3-indolyl)butanoate]	2%	9%		
COC(=O)c1ccc(C(=O)C2C(=S)N(C)c3ccccc32)cc1 (stereo not drawn) [Compound 26, 3-(4'-carbomethoxybenzoyl) -1-methyl-2-indolinethione]				inhibition at 100 µM [2]: 5%
N#CCc1c(SSc2[nH]c3ccccc3c2CC#N)[nH]c2ccccc12 [Compound 35, 2,2'-dithiobis[3-indolylacetonitrile]]		33.9%	16.5 µM	
NC(=O)CCc1c(SSc2[nH]c3ccccc3c2CCC(N)=O)[nH]c2ccccc12 [Compound 50]		62.6%	16 µM	
CONC(=O)CCc1c(SSc2[nH]c3ccccc3c2CCC(=O)NOC)[nH]c2ccccc12 [Compound 52]		18.3%	68.2 µM	
O=C(CCc1c(SSc2[nH]c3ccccc3c2CCC(=O)NCCc2ccccc2)[nH]c2ccccc12)NCCc1ccccc1 [Compound 54, 2,2'-dithiobis[N-(2-phenylethyl) -3-(3-indolyl)propanamide]]		20.6%	29 µM	
O=C(CCc1c(SSc2[nH]c3ccccc3c2CCC(=O)NCc2ccc(C(=O)O)cc2)[nH]c2ccccc12)NCc1ccc(C(=O)O)cc1 [Compound 56, 2,2'-dithiobis[N-(4-carboxybenzyl)-3-(3-indolyl)propanamide]]		44.5%	7.3 µM	
COC(=O)c1ccc(CNC(=O)CCc2c(SSc3[nH]c4ccccc4c3CCC(=O)NCc3ccc(C(=O)OC)c(O)c3)[nH]c3ccccc23)cc1O [Compound 57]	46%	14.5%		
O=C(CCc1c(SSc2[nH]c3ccccc3c2CCC(=O)NCc2ccc(C(=O)O)c(O)c2)[nH]c2ccccc12)NCc1ccc(C(=O)O)c(O)c1 [Compound 58]	68%			
O=C(CCc1c(SSc2[nH]c3ccccc3c2CCC(=O)Nc2ccccc2)[nH]c2ccccc12)Nc1ccccc1 [Compound 59]		11.4%	30.5 µM	
CC(=O)OC(Cc1c(SSc2[nH]c3ccccc3c2CC(OC(C)=O)C(=O)NCc2ccccc2)[nH]c2ccccc12)C(=O)NCc1ccccc1 (stereo not drawn) [Compound 63]			60 µM	
O=C(NCc1ccccc1)C(O)Cc1c(SSc2[nH]c3ccccc3c2CC(O)C(=O)NCc2ccccc2)[nH]c2ccccc12 (stereo not drawn) [Compound 64, 2,2'-dithiobis[α-hydroxy-N -(phenylmethyl)-1H-indole-3-propanamide]]			29 µM	
O=C(O)CCCc1c(SSc2[nH]c3ccccc3c2CCCC(=O)O)[nH]c2ccccc12 [Compound 65, bis[indolyl-3-butanoic acid-(2)]disulfide]			17.8 µM	
Cn1c(SSc2c(CCCC(=O)O)c3ccccc3n2C)c(CCCC(=O)O)c2ccccc21 [Compound 66]			8.3 µM	
COC(=O)CCCc1c(SSc2[nH]c3ccccc3c2CCCC(=O)OC)[nH]c2ccccc12 [Compound 67, bis[methylindolyl-3-butanoate-(2)]-disulfide]	18%	2%		
O=C(CCCc1c(SSc2[nH]c3ccccc3c2CCCC(=O)NCc2ccccc2)[nH]c2ccccc12)NCc1ccccc1 [Compound 69]	55.6%	8.9%		
Cn1c(SSc2c(C(=O)Nc3ccccc3)c3c(Cl)cccc3n2C)c(C(=O)Nc2ccccc2)c2c(Cl)cccc21 [Compound 72, bis[N-phenyl 4-chloro-1-methylindolyl-3-carboxamide-(2)] disulfide]	47%	22%		

Compound	inhibition at 100 µM [1]	inhibition at 100 µM ([2]; at 100 μM, PDGF-R)	IC50 ([1]; Table 2, EGRF-R, IC50 entries)	also measured
Cn1c(SSc2c(C(=O)Nc3ccccc3)c3cccc(Cl)c3n2C)c(C(=O)Nc2ccccc2)c2cccc(Cl)c21 [Compound 74, bis [N-phenyl-7-chloro-1-methylindolyl-3-carboxamide-(2)]disulfide]	23%			
CC(=O)Oc1ccc2c(C(=O)Nc3ccccc3)c(SSc3c(C(=O)Nc4ccccc4)c4ccc(OC(C)=O)cc4n3C)n(C)c2c1 [Compound 93, 2,2'-dithiobis [N-phenyl-6-acetoxy-1-methylindolyl-3-carboxamide]]	30%			
CC(=O)Oc1cccc2c(C(=O)Nc3ccccc3)c(SSc3c(C(=O)Nc4ccccc4)c4cccc(OC(C)=O)c4n3C)n(C)c12 [Compound 95, 2,2'-dithiobis[N-phenyl-7-acetoxy-1-methylindolyl-3-carboxamide]]			9.4 µM	
Cn1c(SSc2c(C(=O)c3ccccc3)c3ccccc3n2C)c(C(=O)c2ccccc2)c2ccccc21 [Compound 100, bis[3-benzoyl-1-methylindole-(2)]disulfide]				inhibition at 100 µM [2]: 23%
Cn1c(SSc2c(C(=O)c3ccc(C(=O)O)cc3)c3ccccc3n2C)c(C(=O)c2ccc(C(=O)O)cc2)c2ccccc21 [Compound 101, bis[3-(4'-carboxybenzoyl)-1-methylindole-(2)]disulfide]			5.5 µM	
COC(=O)c1ccc(C(=O)c2c(SSc3c(C(=O)c4ccc(C(=O)OC)cc4)c4ccccc4n3C)n(C)c3ccccc23)cc1 [Compound 102, bis[3-(4'-carbomethoxybenzoyl)-1-methylindole-(2)]disulfide]			6.1 µM	
COC(=O)c1ccc(NC(=O)c2c(SSc3c(C(=O)Nc4ccc(C(=O)OC)cc4)c4ccccc4n3C)n(C)c3ccccc23)cc1 [Compound 104, 2,2'-dithiobis [N-(4'-carbomethoxy)phenyl-1-methylindolyl-3-carboxamide]]	20%			
COC(=O)c1cccc(NC(=O)c2c(SSc3c(C(=O)Nc4cccc(C(=O)OC)c4)c4ccccc4n3C)n(C)c3ccccc23)c1 [Compound 106, 2,2'-dithiobis [N-(3'-carbomethoxy)phenyl-1-methylindolyl-3-carboxamide]]	34%			
Cn1c(SSc2c(C(=O)Nc3cccc(C(=O)O)c3)c3ccccc3n2C)c(C(=O)Nc2cccc(C(=O)O)c2)c2ccccc21 [Compound 107, 2,2'-dithiobis[N-(3-carboxy)phenyl-1-methylindolyl-3-carboxamide]]			12 µM	
COC(=O)c1ccccc1NC(=O)c1c(SSc2c(C(=O)Nc3ccccc3C(=O)OC)c3ccccc3n2C)n(C)c2ccccc12 [Compound 108, 2,2'-dithiobis [N-(2-carbomethoxy)phenyl-1-methylindolyl-3-carboxamide]]	20%			
COC(=O)c1ccc(CNC(=O)c2c(SSc3c(C(=O)NCc4ccc(C(=O)OC)cc4)c4ccccc4n3C)n(C)c3ccccc23)cc1 [Compound 110, 2,2'-dithiobis [N-(4'-carbomethoxy)benzyl 1-methylindolyl-3-carboxamide]]			13 µM	
Cn1c(SSc2c(C#N)c3ccccc3n2C)c(C#N)c2ccccc21 [Compound 120]			6.9 µM	
CC(=O)c1c(SSc2c(C(C)=O)c3ccccc3n2C)n(C)c2ccccc12 [Compound 121, 2,2'-dithiobis(3-acetyl-1-methylindole)]			5.6 µM	
Cn1c(SSc2c(C(=O)Nc3ccccn3)c3ccccc3n2C)c(C(=O)Nc2ccccn2)c2ccccc21 [Compound 122, 2,2'-dithiobis [N-(2'-pyridyl)-1-methylindole-3-carboxamide]]	51%			
O=C(NCc1ccccc1)c1c(SSc2[nH]c3ccccc3c2C(=O)NCc2ccccc2)[nH]c2ccccc12 [Compound 125, 2,2'-dithiobis [N-benzylindolyl-3-carboxamide]]	78%			
O=C(Nc1ccccc1)c1c(SSc2[nH]c3ccccc3c2C(=O)Nc2ccccc2)[nH]c2ccccc12 [Compound 126, 2,2'-dithiobis [N-phenylindolyl-3-carboxamide]]	60%			
CNC(=O)c1c(SSc2[nH]c3ccccc3c2C(=O)NC)[nH]c2ccccc12 [Compound 127, 2,2'-dithiobis[N-methylindolinyl-3-carboxamide]]			6.8 µM	
Cn1c([Se][Se]c2c(C(=O)OC(C)(C)C)c3ccccc3n2C)c(C(=O)OC(C)(C)C)c2ccccc21 [Compound 129, 2,2'-diselenobis [1-methyl-1H-indole-3-carboxylic acid, t-butyl ester]]	31%			
Cn1c([Se][Se]c2c(C(=O)O)c3ccccc3n2C)c(C(=O)O)c2ccccc21 [Compound 130, 2,2'-diselenobis [1-methyl-1H-indole-3-carboxylic acid]]				IC50 [1]: 3.5 µM
CCN(CC)CCn1c([Se][Se]c2c(C(=O)NC)c3ccccc3n2CCN(CC)CC)c(C(=O)NC)c2ccccc21 [Compound 135, 2,2'-diselenobis [1-[2-(diethylamino)ethyl] -N-methyl-1H-indole-3-carboxamide]]				IC50 [1]: 6.9 µM
